Activity calls are given as the source filed them. No cut-off for these calls is given here. Square brackets hold non-standard residues; d marks the D form. Peptide text beside a SMILES is read from it. * marks the point of attachment. ξ: configuration not given here. ξPhe(3-OMe) = COc1cccc(CC(N)C(=O)O)c1; ξPhe(2-I) = NC(Cc1ccccc1I)C(=O)O; Nphe = O=C(O)CNCc1ccccc1; Boc = CC(C)(C)OC(=O)*
Tests used:
[1] = target: Kappa-type opioid receptor (Homo sapiens, UniProt P41145); assay: Displacement of [3H]U69593 from human KOR expressed in HEK cell membranes assessed as inhibition constant incubated for 60 mins by microbeta 2 scintillation counting method; design: species or system Cell membrane
[2] = target: Delta-type opioid receptor (Homo sapiens, UniProt P41143); assay: Displacement of [3H]DADLE from human DOR expressed in CHO cell membranes assessed as inhibition constant incubated for 60 mins by microbeta 2 scintillation counting method; design: species or system Cell membrane
Mu-type opioid receptor = Mu-type opioid receptor (Homo sapiens, UniProt P35372); assay: Displacement of [3H]DAMGO from human MOR expressed in CHO cell membranes assessed as inhibition constant incubated for 60 mins by microbeta 2 scintillation counting method; design: species or system Cell membrane
Homo sapiens [3] = species: Homo sapiens; assay: Selectivity ratio of Ki for displacement of [3H]DAMGO from human MOR expressed in CHO cell membranes to Ki for displacement of [3H]U69593 from human KOR expressed in HEK cell membranes
Homo sapiens [4] = species: Homo sapiens; assay: Selectivity ratio of Ki for displacement of [3H]DADLE from human DOR expressed in CHO cell membranes to Ki for displacement of [3H]U69593 from human KOR expressed in HEK cell membranes
Rattus norvegicus [5] = assay: Effect on emotional-affective response in spinal nerve ligation neuropathic pain rat model assessed as reduction in ultrasonic vocalizations at 3 mg/kg, ip measured at 1 hr by preamplifier based analysis; format: functional, organism-based
Rattus norvegicus [6] = assay: Effect on emotional-affective response in spinal nerve ligation neuropathic pain rat model assessed as reduction in audible vocalizations at 3 mg/kg, ip measured at 1 hr by preamplifier based analysis; format: functional, organism-based
BEND3 = assay: Apparent permeability coefficient of the compound across blood brain barrier in mouse BEND3 cells at 10 ug/ml measured upto 120 mins by LC-MS/MS analysis; format: functional, cell-based; settings: dose 10.0 µg/ml
[7] = Metabolic stability in CD-1 mouse plasma assessed as half life at 100 uM measured upto 24 hrs by LC-MS/MS analysis; format: ADME, cell-free
[8] = Plasma protein binding in human assessed as bound fraction at 1 uM by LC-MS/MS analysis; format: ADME, cell-free
[9] = Plasma protein binding in mouse assessed as bound fraction at 1 uM by LC-MS/MS analysis; format: ADME, cell-free
[10] = Metabolic stability in Beagle dog plasma assessed as half life at 100 uM measured upto 24 hrs by LC-MS/MS analysis; format: ADME, cell-free, Canis lupus familiaris
[11] = Metabolic stability in human plasma assessed as half life at 100 uM measured upto 24 hrs by LC-MS/MS analysis; format: ADME, cell-free
[12] = Plasma protein binding in rat assessed as bound fraction at 1 uM by LC-MS/MS analysis; format: ADME, cell-free
[13] = Metabolic stability in Sprague-Dawley rat liver microsomes assessed as intrinsic clearance at 100 uM measured upto 24 hrs in presence of NADPH by LC-MS/MS analysis; format: ADME, Microsome
[14] = Plasma protein binding in dog assessed as bound fraction at 1 uM by LC-MS/MS analysis; format: ADME, cell-free, Canis lupus familiaris
[15] = Metabolic stability in Sprague-Dawley rat plasma assessed as half life at 100 uM measured upto 24 hrs by LC-MS/MS analysis; format: ADME, cell-free

Sequence of Kappa-type opioid receptor (P41145 whole entry): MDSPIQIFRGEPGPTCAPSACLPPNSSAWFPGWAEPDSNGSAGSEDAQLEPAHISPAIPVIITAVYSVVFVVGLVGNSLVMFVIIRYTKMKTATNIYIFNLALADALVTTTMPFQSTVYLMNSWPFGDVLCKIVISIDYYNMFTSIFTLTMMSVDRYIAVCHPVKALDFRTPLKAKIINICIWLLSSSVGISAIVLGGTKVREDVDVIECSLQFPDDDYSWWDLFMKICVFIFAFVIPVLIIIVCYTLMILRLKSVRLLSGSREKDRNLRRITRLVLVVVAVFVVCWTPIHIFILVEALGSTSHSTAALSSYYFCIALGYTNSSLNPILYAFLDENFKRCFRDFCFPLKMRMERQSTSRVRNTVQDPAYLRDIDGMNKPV
Sequence of Mu-type opioid receptor (P35372 whole entry): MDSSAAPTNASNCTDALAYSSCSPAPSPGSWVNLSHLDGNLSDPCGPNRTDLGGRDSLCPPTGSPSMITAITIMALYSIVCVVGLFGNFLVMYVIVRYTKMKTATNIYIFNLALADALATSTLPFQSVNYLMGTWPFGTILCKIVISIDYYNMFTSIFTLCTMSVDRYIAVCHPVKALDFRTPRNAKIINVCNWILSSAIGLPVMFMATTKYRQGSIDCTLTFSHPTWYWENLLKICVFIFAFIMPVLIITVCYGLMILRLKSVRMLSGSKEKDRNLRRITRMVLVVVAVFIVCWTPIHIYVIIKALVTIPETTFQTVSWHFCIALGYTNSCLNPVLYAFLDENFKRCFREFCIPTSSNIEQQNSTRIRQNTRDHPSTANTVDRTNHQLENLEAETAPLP
Sequence of Delta-type opioid receptor (P41143 whole entry): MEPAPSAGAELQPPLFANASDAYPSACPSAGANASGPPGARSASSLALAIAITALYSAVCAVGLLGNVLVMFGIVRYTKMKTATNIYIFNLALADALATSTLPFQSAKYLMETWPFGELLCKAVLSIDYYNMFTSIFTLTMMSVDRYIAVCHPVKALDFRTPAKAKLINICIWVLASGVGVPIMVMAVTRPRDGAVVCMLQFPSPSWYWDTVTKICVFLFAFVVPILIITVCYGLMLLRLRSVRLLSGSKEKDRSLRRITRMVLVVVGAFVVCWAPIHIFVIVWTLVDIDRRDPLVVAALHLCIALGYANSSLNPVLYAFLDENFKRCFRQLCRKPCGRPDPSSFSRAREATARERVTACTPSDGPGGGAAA

Compound | Ki [1] [µM] | Ki [2] [µM] | Ki (Mu-type opioid receptor) [µM] | Ratio Ki (Homo sapiens [3]) | Ratio Ki (Homo sapiens [4]) | other results
O=C1CN(Cc2ccccc2)C(=O)C(Cc2cccc(O)c2I)N1 (configuration not stated) | > 10 | > 10 | > 10 |  |  | 
COc1cccc(CC2NC(=O)CN(CCCc3ccccc3)C2=O)c1I (configuration not stated) | 7 | > 10 | > 10 | > 1.4 | > 1.4 | 
NCC1(CC(=O)O)CCCCC1 |  |  |  |  |  | Activity (Rattus norvegicus [5]): Active; Activity (Rattus norvegicus [6]): Active
COc1cccc(CC2NC(=O)[C@@H]3CCCN3C2=O)c1I (some centres not stated) | > 10 | > 10 | > 10 |  |  | 
COC(=O)C(Cc1cccc(OC)c1I)NC(=O)CNC(C)c1ccccc1 (configuration not stated) | 0.765 | > 10 | > 10 | > 13 | > 13 | 
COC(=O)C(Cc1cccc(OC)c1I)NC(=O)[C@@H](N)Cc1ccccc1 (mixture of isomers) | 2.17 | > 10 | > 10 | > 5 | > 5 | 
COC(=O)C(Cc1cccc(OC)c1I)NC(=O)CN(C)C(=O)OC(C)(C)C (configuration not stated) | > 10 | > 10 | > 10 |  |  | 
COC(=O)C(Cc1cccc(OC)c1I)NC(=O)CCNCc1ccccc1 (configuration not stated) | 1.23 | > 10 | > 10 | > 8 | > 8 | 
COc1cccc(CC2NC(=O)CN(CC=C(C)C)C2=O)c1I (configuration not stated) | > 10 | > 10 | > 10 |  |  | 
Cn1c(=O)c2c(ncn2C)n(C)c1=O |  |  |  |  |  | Pe (BEND3): 28.1 10^-3cm/min
COc1cccc(CC2NC(=O)CCN(Cc3ccccc3)C2=O)c1I (configuration not stated) | > 10 | > 10 | > 10 |  |  | 
Cc1cccc(CC2NC(=O)CN(Cc3ccccc3)C2=O)c1I (configuration not stated) | > 10 | > 10 | > 10 |  |  | 
COc1cccc(CC2NC(=O)CN(Cc3ccccc3)C2=O)c1C (configuration not stated) | 0.6 | > 10 | > 10 | > 17 | > 17 | half-life at 100 µM [7]: > 24 h; PPB [8]: 80.46%; PPB [9]: 86.29%; half-life at 100 µM ([10]; Beagle): > 24 h; Pe (BEND3): 5.99 10^-3cm/min; half-life at 100 µM [11]: > 24 h; PPB [12]: 76.34%; Intrinsic clearance [13]: 337.2 µL/min/mg; PPB [14]: 86.67%; half-life at 100 µM [15]: > 24 h
COC(=O)C(Cc1ccccc1I)NC(=O)CNCc1ccccc1 (configuration not stated) (H-[Nphe]-[ξPhe(2-I)]-OMe) | > 10 | > 10 | > 10 |  |  | 
COC(=O)C(Cc1cccc(OC)c1I)NC(=O)CNCc1cccnc1 (configuration not stated) | > 10 | > 10 | > 10 |  |  | 
COC(=O)C(Cc1cccc(OC)c1C)NC(=O)CNCc1ccccc1 (configuration not stated) | 0.19 | > 10 | > 10 | > 53 | > 53 | half-life at 100 µM [7]: < 0.0167 h; PPB [8]: 89.36%; t1/2 ([10]; 24 h, 100 µM): 4.321 h; Pe (BEND3): 6.25 10^-3cm/min; t1/2 ([11]; 24 h, 100 µM): 2.5282 h; Intrinsic clearance [13]: 1112 µL/min/mg; PPB [14]: 94.28%; half-life at 100 µM [15]: < 0.0167 h
COc1cccc(CC2NC(=O)CN(C)C2=O)c1I (configuration not stated) | > 10 | > 10 | > 10 |  |  | 
COC(=O)C(Cc1cccc(OC)c1I)NC(=O)CN (configuration not stated) | > 10 | > 10 | > 10 |  |  | 
COC(=O)C(Cc1cccc(OC)c1I)NC(=O)CNCCc1ccccc1 (configuration not stated) | 0.802 | > 10 | > 10 | > 12 | > 12 | 
COC(=O)C(Cc1cccc(OC)c1)NC(=O)CNCc1ccccc1 (configuration not stated) (H-[Nphe]-[ξPhe(3-OMe)]-OMe) | > 10 | > 10 | > 10 |  |  | 
COC(=O)C(Cc1ccccc1I)NC(=O)CN(Cc1ccccc1)C(=O)OC(C)(C)C (configuration not stated) (Boc-[Nphe]-[ξPhe(2-I)]-OMe) | 4.18 | > 10 | 4.38 |  |  | 

— ChEMBL document CHEMBL5325418, “Studies on diketopiperazine and dipeptide analogs as opioid receptor ligands” (Eur J Med Chem, 2023)
